Assay results from paper PMC11786100, “Chronic GIPR agonism results in pancreatic islet GIPR functional desensitisation” (Molecular Metabolism, 2025).
Read-outs that look alike come from different tables or passages of the source.

Experiments:
β2-adrenergic receptor = assay: Ex vivo islet heterologous desensitisation, isoproterenol rechallenge cAMP; assay type: cell-based, mouse; conditions: 24-hour pre-treatment with GIP108 (1 μM); dispersed islets, cADDis, n=3
Procedure: (§1) Primary cultures of mouse hypothalamic neurons and dispersed pancreatic islets were transduced with the Green Up cADDis biosensor (Montana Molecular, US). Pancreatic islets from CAMPER^Pdx−1-CreERT2 and CAMPER^Som-Cre mice were not transduced. Cells were pre-treated with peptides as specified, dissolved in culture media. Following 4 h or overnight incubation and a 1-hour washout period, cells were imaged using an epifluorescence microscope at baseline (t = 3 min), following peptide addition (t = 10 min, unless specified otherwise), and following 3-isobutyl-1-methylxanthine (IBMX) (500 μM) and forskolin (FSK) (50 μM) addition (t = 3 min) to maximally stimulate the sensor. In pre-treatment experiments, islet cell fluorescence was normalised to the IBMX/FSK response which was set as 100%. In non-pre-treatment experiments, islet and neuronal cell fluorescence was normalised to both the baseline and IBMX/FSK response. The area-under-the-curve (AUC) for each cell was quantified. […]
(§2) cAMP quantification from the raw islet/neuronal images was performed using Fiji v1.54f (NIH). […] The fluorescence intensity of each ROI was measured at each time point. In pre-treatment experiments, islet cell fluorescence was normalised to the maximal IBMX/FSK response which was set as 100%. […] The AUC during peptide stimulation for each cell was quantified. […]

dispersed islet cells = assay: cADDis cAMP concentration-response in dispersed islets; assay type: cell-based, mouse; conditions: for EC50: three-parameter fit, n=5, read-out: calculated EC50, cAMP in dispersed islets
Procedure: (§3) Primary cultures of mouse hypothalamic neurons and dispersed pancreatic islets were transduced with the Green Up cADDis biosensor (Montana Molecular, US). Pancreatic islets from CAMPER^Pdx−1-CreERT2 and CAMPER^Som-Cre mice were not transduced. Cells were pre-treated with peptides as specified, dissolved in culture media. Following 4 h or overnight incubation and a 1-hour washout period, cells were imaged using an epifluorescence microscope at baseline (t = 3 min), following peptide addition (t = 10 min, unless specified otherwise), and following 3-isobutyl-1-methylxanthine (IBMX) (500 μM) and forskolin (FSK) (50 μM) addition (t = 3 min) to maximally stimulate the sensor. In pre-treatment experiments, islet cell fluorescence was normalised to the IBMX/FSK response which was set as 100%. In non-pre-treatment experiments, islet and neuronal cell fluorescence was normalised to both the baseline and IBMX/FSK response. The area-under-the-curve (AUC) for each cell was quantified. Full details of isolation, transduction, plating, imaging and image analysis is provided in the supplementary methods.
Dispersed islets: A cell suspension of dispersed islets in RPMI-1640 + 10% FBS + 1% P/S (islet complete media) was seeded onto square 96 well µ-plates (Ibidi, UK), coated with 0.01% poly-D-lysine hydrobromide (Sigma-Aldrich, UK) and 25 µg/ml mouse laminin (Thermo Fisher, UK). For cADDis experiments, cells were transduced with the Green Up cADDis biosensor (15 μL of cADDis, 1.5 μL of sodium butyrate per well: Montana Molecular, US). Cells were incubated overnight (37°C, 95%:5% O2:CO2 ratio).
Cells were imaged in Krebs buffer with 6 mM glucose and 0.1% BSA (unless 10% FBS was specified) at 37°C using an automated epifluorescence microscope (modified Nikon Ti-2E with LED illumination). Multiple fields of view (FOV) were imaged in parallel (for islets, multiple wells of a 96 well plate were imaged in parallel), allowing hundreds to thousands of cells to be imaged every minute throughout the time course. For all acquisitions, the first three minutes were baseline recording pre-peptide addition and the last three minutes were a positive control following IBMX (500 μM) and forskolin (50 μM) addition to maximally stimulate the sensor.
cAMP quantification from the raw islet/neuronal images was performed using Fiji v1.54f (NIH). For each acquisition, a flat-field (BaSiC [3*]) correction was applied, and intensity thresholding enabled cell-containing regions to be identified as regions-of-interest (ROIs). The fluorescence intensity of each ROI was measured at each time point. In pre-treatment experiments, islet cell fluorescence was normalised to the maximal IBMX/FSK response which was set as 100%. For non-pre-treatment experiments, neuronal and islet cell fluorescence were normalised to both the baseline and maximal IBMX/FSK response. The AUC during peptide stimulation for each cell was quantified. Neurons with an AUC greater than 75 (representing a response 15 % of the maximum IBMX/FSK response) were deemed responder neurons.
We aimed to determine appropriate pre-treatment doses of GIPR agonists which would produce detectable cAMP responses, indicating target engagement, and were compatible with an extended incubation in complete medium, which could influence ligand availability via binding to serum proteins. We first performed concentration-response analysis in dispersed islets transduced with cADDis in the presence of 10% FBS (Figure S2A, B, D, E).
To determine a sensible re-challenge dose of GIPR agonists, a further concentration-response analysis was conducted in cADDis-transduced dispersed islets in imaging buffer (Krebs buffer + 6 mM glucose + 0.1% BSA, i.e. without FBS) (Figure S2C, F). […] Therefore, 1 μM of GIP108 and 100 nM of GIP were chosen as peri-maximal re-stimulation doses for the remaining islet cAMP assays.
GLP-1R agonist pre-treatment dose selection was performed concurrently with GIPR agonist dose selection.

[1] = Peptide stability in complete medium with dispersed islet cells (cAMP bioactivity assay); assay type: in vitro ADME, mouse
Procedure: AD-293 cells were added to a 12-well plate and maintained in 2 ml complete DMEM. 1 μg of specified plasmid DNA was added to each well alongside Lipofectamine 2000 (Thermo Fisher, UK). cAMP production was quantified 24 hours following transfection using homogenous time resolved fluorescence (HTRF), specifically the cAMP-Gs Dynamic 2 kit (Cisbio, France). Peptides and cells were diluted in DMEM + 1% P/S + 0.1% BSA. For peptide stability testing, cells, fresh peptide and peptide incubated with dispersed islet cells were diluted in RPMI-1640 (Thermo Fisher, UK) + 10% FBS + 1% P/S. 10 μl of peptide and 10 μl of cell suspension were added in duplicate to an opaque 96-well plate (Grenier Bio-One, Austria) and incubated at 37°C for 30 minutes. 10 μl of cAMP-d2 and anti-cAMP cryptate, both diluted in lysis buffer, were added in quick succession as per the manufacturer’s protocol. The plates were then incubated at room temperature for 45 minutes and read using the SpectraMax i3x (Molecular Devices, US).
Three-parameter curve fitting was applied.

GLP-1R = target: T1, GLP-1R (Mus musculus, UniProt O35659); assay: Ex vivo islet GLP-1R desensitisation (pre-treat/washout/rechallenge cAMP); assay type: cell-based; conditions: dispersed islets, cADDis
T1 construct: from tissue; host or cells: dispersed mouse pancreatic islets
T1 sequence (O35659 22-463): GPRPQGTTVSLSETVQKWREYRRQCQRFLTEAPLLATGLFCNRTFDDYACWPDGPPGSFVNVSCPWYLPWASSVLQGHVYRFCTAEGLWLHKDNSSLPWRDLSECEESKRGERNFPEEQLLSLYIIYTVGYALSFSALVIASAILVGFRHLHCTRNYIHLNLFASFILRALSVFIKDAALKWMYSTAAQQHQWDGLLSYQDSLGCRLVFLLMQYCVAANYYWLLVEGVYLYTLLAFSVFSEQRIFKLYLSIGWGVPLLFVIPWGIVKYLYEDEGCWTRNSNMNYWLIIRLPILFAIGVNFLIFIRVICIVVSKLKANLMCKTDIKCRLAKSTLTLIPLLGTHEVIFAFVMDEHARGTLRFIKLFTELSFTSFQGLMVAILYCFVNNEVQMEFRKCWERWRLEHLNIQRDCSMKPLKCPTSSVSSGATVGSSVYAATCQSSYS
Procedure: as §1, §2

[2] = tested on: murine hypothalamic neurons; assay: cADDis cAMP imaging in primary hypothalamic neurons; assay type: cell-based, mouse; conditions: 5-minute stimulation, n=4
Procedure: as §3
Primary cultures of hypothalamic neurons were prepared from 6-week-old male and female mice as described previously [2*]. A minor difference was that the neuronal pellet was resuspended in Neurobasal-A medium containing 0.25% Glutamax, 2% B27 and 25 ng/ml NGF (all Thermo Fisher, UK) (neuronal culture media).
Hypothalamic neurons: 100 μL cell suspension of neurons in neuronal culture media was seeded on 35 mm petri dish (MatTek Corporation), pre-coated with 0.01% poly-D-lysine hydrobromide. […]
cAMP quantification from the raw islet/neuronal images was performed using Fiji v1.54f (NIH). […] The fluorescence intensity of each ROI was measured at each time point. In pre-treatment experiments, islet cell fluorescence was normalised to the maximal IBMX/FSK response which was set as 100%. For non-pre-treatment experiments, neuronal and islet cell fluorescence were normalised to both the baseline and maximal IBMX/FSK response. The AUC during peptide stimulation for each cell was quantified. […]

[3] = imaging buffer (Krebs + 6 mM glucose + 0.1% BSA, without FBS)
[4] = in the presence of 10% FBS, stepwise addition

Compound | cAMP response to isoproterenol (1 μM) after GIP108 pre-treatment (β2-adrenergic receptor) | doses above which cAMP responses were detectable (dispersed islet cells; [3]) | EC50 (dispersed islet cells; imaging buffer (Krebs buffer + 6 mM glucose + 0.1% BSA, without FBS)) [nM] | doses above which cAMP responses were detectable (dispersed islet cells; in the presence of 10% FBS) | EC50 (dispersed islet cells; [4]) [nM] | stability at 24 hours ([1]; 1 μM in complete medium with dispersed islet cells, cAMP bioactivity in mouse GIPR AD-293 cells) | concentration remaining from 500 nM after 24 hours ([1]; peptide at 1 μM in complete medium (RPMI-1640 + 10% FBS + 1% P/S) with dispersed islet cells, 24 h, concentrations halved during assay, read-out cAMP in mouse GIPR-expressing AD-293 cells, n=4) [nM] | cAMP response to GLP-1 (100 nM) after GIP108 pre-treatment (GLP-1R; 24-hour pre-treatment with GIP108 (1 μM), n=3) | cAMP response of hypothalamic neurons ([2]; 100 nM and 1 μM) | concentration remaining from 500 nM after 24 hours [1] [nM] | GLP-1R desensitisation after 4 h pre-treatment (GLP-1R; pre-treatment GLP-1 (10 nM), rechallenge GLP-1 (1 nM), n = 3) | cAMP response of hypothalamic neurons ([2]; 10 and 100 nM)
CC[C@H](C)[C@H](NC(=O)[C@H](CO)NC(=O)[C@H](Cc1ccc(O)cc1)NC(=O)[C@H](CC(=O)O)NC(=O)[C@H](CO)NC(=O)[C@@H](NC(=O)[C@H](Cc1ccccc1)NC(=O)[C@@H](NC(=O)CNC(=O)[C@H](CCC(=O)O)NC(=O)C(C)(C)NC(=O)[C@@H](N)Cc1ccc(O)cc1)[C@@H](C)O)[C@@H](C)CC)C(=O)N[C@@H](C)C(=O)N[C@@H](CC(C)C)C(=O)N[C@@H](CC(=O)O)C(=O)N[C@@H](CCCCN)C(=O)N[C@H](C(=O)N[C@@H](Cc1c[nH]cn1)C(=O)N[C@@H](CCC(N)=O)C(=O)N[C@@H](CCC(N)=O)C(=O)N[C@@H](CC(=O)O)C(=O)N[C@@H](Cc1ccccc1)C(=O)N[C@H](C(=O)N[C@@H](CC(N)=O)C(=O)N[C@@H](Cc1c[nH]c2ccccc12)C(=O)N[C@@H](CC(C)C)C(=O)N[C@@H](CC(C)C)C(=O)N[C@@H](C)C(=O)N[C@@H](CCC(N)=O)C(=O)N[C@@H](CCCCN)C(=O)NCC(=O)N[C@@H](CCCCNC(=O)CC[C@H](NC(=O)CCCCCCCCCCCCCCCCCCC(=O)O)C(=O)O)C(=O)N[C@@H](CCCCN)C(=O)N[C@@H](CC(N)=O)C(=O)N[C@@H](CC(=O)O)C(=O)N[C@@H](Cc1c[nH]c2ccccc12)C(=O)N[C@@H](CCCCN)C(=O)N[C@@H](Cc1c[nH]cn1)C(=O)N[C@@H](CC(N)=O)C(=O)N[C@H](C(=O)N[C@H](C(=O)N[C@@H](CCC(N)=O)C(=O)O)[C@@H](C)O)[C@@H](C)CC)C(C)C)[C@@H](C)CC [GIP108] | remained intact | above 10 nM | 218 | above 100 nM | 1960 | remained partially stable at 24 hours | 215 | small but significant decrease | failed to show detectable responses |  |  | 
GLP-1(7–36)·NH2 |  | above 0.1 nM |  | above 0.1 nM | 0.295 |  |  |  |  | 0.177 | partial GLP-1R desensitisation, this was not statistically significant | significant responses
